In PubChem BioAssay (NCI) one finds TGI and GI50 data, which are given here for ten compounds.

Among the test systems are U251 CNS; CCRF-CEM leukemia; SF-268 CNS; UACC-62 melanoma; K-562 leukemia; KM12 colon; RXF 393 renal; ACHN renal; SF-539 CNS; NCI-H23 lung.
Common to all, as to assay: NCI anticancer screen, dose series, 48 h

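How tested: cells in 96-well plates exposed to compound for 48 hours at five concentrations. GI50 marks 50% less growth. TGI is the concentration that stops growth completely.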

As for `COc1cccc(/C=C/c2cnc3ccccc3n2)c1OC`, the TGI with U251 CNS is more than 100 µM; in the experiment on CCRF-CEM leukemia, more than 100 µM; with SF-268 CNS, more than 100 µM; with UACC-62 melanoma, 91.2 µM; with K-562 leukemia, more than 100 µM; with KM12 colon, more than 100 µM. In addition, the TGI was 96.1 µM in the experiment with RXF 393 renal, more than 100 µM with ACHN renal, more than 100 µM in the experiment on SF-539 CNS and more than 100 µM in the experiment on NCI-H23 lung.
With `O=C1CN(C(=O)c2ccccc2)Cc2[nH]c3ccccc3c21`, the TGI with U251 CNS, with CCRF-CEM leukemia, with UACC-62 melanoma, with K-562 leukemia, with KM12 colon and in the experiment with RXF 393 renal was more than 100 µM throughout. Moreover, the TGI in the experiment on ACHN renal, in the experiment with SF-539 CNS and in the experiment on NCI-H23 lung was more than 100 µM each time.
`Cc1cc(C)c(O)c(CN(C)Cc2cc(Cl)cc(Cl)c2O)c1`: the GI50 with U251 CNS is 4.01 µM; in the experiment with CCRF-CEM leukemia, 2.7 µM; with SF-268 CNS it was 3.26 µM; with UACC-62 melanoma, 3.42 µM; with K-562 leukemia, 3.54 µM; in the experiment with KM12 colon, 5.31 µM. Moreover, the GI50 in the experiment on RXF 393 renal was 7.34 µM; in the experiment on ACHN renal it was 4.73 µM; with SF-539 CNS, 6.43 µM; in the experiment with NCI-H23 lung, 3.91 µM. Also, the TGI was 17.1 µM with U251 CNS; 14.8 µM in the experiment with CCRF-CEM leukemia; 19.2 µM with SF-268 CNS; 13.1 µM in the experiment on UACC-62 melanoma; more than 100 µM with K-562 leukemia; 17.7 µM in the experiment on KM12 colon. Also, the TGI with RXF 393 renal is 23.6 µM; in the experiment with ACHN renal it was 24 µM; in the experiment with SF-539 CNS it was 25.1 µM; with NCI-H23 lung, 17.3 µM.
As to `N#CCc1ncc(-c2ccc(C(F)(F)F)cc2)c(NC2CCCCCC2)n1`, the GI50 with U251 CNS, in the experiment with CCRF-CEM leukemia, in the experiment with SF-268 CNS, in the experiment on UACC-62 melanoma, with K-562 leukemia and in the experiment with KM12 colon was more than 10 µM each time. The GI50 in the experiment with RXF 393 renal, with ACHN renal, with SF-539 CNS and with NCI-H23 lung was more than 10 µM throughout. The TGI in the experiment with U251 CNS, in the experiment with CCRF-CEM leukemia, in the experiment on SF-268 CNS, with UACC-62 melanoma, with K-562 leukemia and in the experiment with KM12 colon was more than 10 µM throughout. For the same compound, the TGI with RXF 393 renal, with ACHN renal, with SF-539 CNS and with NCI-H23 lung was more than 10 µM each time.
In the case of `COc1ccc2nc3cc(Cl)ccc3c(NCCCNCCC(C)O)c2c1` (configuration not stated), the GI50 is 0.495 µM in the experiment with U251 CNS; 0.361 µM in the experiment on CCRF-CEM leukemia; 0.523 µM in the experiment on SF-268 CNS; 0.408 µM with KM12 colon; 0.414 µM in the experiment on RXF 393 renal; 0.192 µM with ACHN renal. The GI50 is 0.345 µM with SF-539 CNS and 0.36 µM in the experiment on NCI-H23 lung. Moreover, the TGI was found to be 2.34 µM in the experiment with U251 CNS; 2.61 µM in the experiment with CCRF-CEM leukemia; 2.52 µM in the experiment with SF-268 CNS; 1.98 µM in the experiment with KM12 colon; 1.74 µM with RXF 393 renal; 1.68 µM in the experiment on ACHN renal. Also, the TGI with SF-539 CNS is 1.49 µM; with NCI-H23 lung it was 2.1 µM.
On to `Fc1ccc(C2SCc3nc4ccccc4n32)cc1` (configuration not stated), for which the TGI was more than 100 µM in the experiment on U251 CNS; more than 100 µM in the experiment with CCRF-CEM leukemia; more than 100 µM in the experiment with SF-268 CNS; more than 100 µM in the experiment with K-562 leukemia; more than 100 µM in the experiment with KM12 colon; 70.7 µM with RXF 393 renal. Moreover, the TGI with ACHN renal, in the experiment on SF-539 CNS and in the experiment with NCI-H23 lung was more than 100 µM each time.
Regarding `O=C(Cc1cccc(OC(F)(F)F)c1)Nc1ccc(CCCCc2nnc(NC(=O)Cc3ccccn3)s2)nn1`, the GI50 is 32.1 µM in the experiment on CCRF-CEM leukemia; 13.6 µM in the experiment with SF-268 CNS; 19.9 µM in the experiment with UACC-62 melanoma; 16.9 µM in the experiment with K-562 leukemia; 14.1 µM in the experiment with KM12 colon; 4.34 µM in the experiment on RXF 393 renal. Further, the GI50 with ACHN renal was 20.9 µM; in the experiment with SF-539 CNS it was 15.7 µM; with NCI-H23 lung, 13.1 µM. The TGI was more than 100 µM with CCRF-CEM leukemia; 39.1 µM in the experiment on SF-268 CNS; more than 100 µM in the experiment on UACC-62 melanoma; more than 100 µM with K-562 leukemia; more than 100 µM with KM12 colon; 22.7 µM in the experiment on RXF 393 renal. In addition, the TGI in the experiment with ACHN renal is more than 100 µM; in the experiment on SF-539 CNS, 50.3 µM; in the experiment on NCI-H23 lung, 45.8 µM.
Consider `O=C(C(=O)N1CC2C=CC1CC2)c1c[nH]c2ccccc12` (configuration not stated), for which the TGI with U251 CNS, in the experiment with CCRF-CEM leukemia, in the experiment on SF-268 CNS, in the experiment on UACC-62 melanoma, with K-562 leukemia and in the experiment with KM12 colon was more than 100 µM each time. Further, the TGI in the experiment on RXF 393 renal, in the experiment on ACHN renal and in the experiment with SF-539 CNS was more than 100 µM throughout.
Consider `CSc1ccc2c3c(n(C[C@H](O)CO)c(=O)c2c1)-c1ccccc1C3=O`, for which the GI50 is 1.19 µM in the experiment on U251 CNS; 1.02 µM in the experiment on CCRF-CEM leukemia; 4.64 µM with SF-268 CNS; 1.39 µM with UACC-62 melanoma; 1.72 µM in the experiment with K-562 leukemia; 2.26 µM in the experiment on KM12 colon. Besides, the results for the GI50 with RXF 393 renal, in the experiment on SF-539 CNS and in the experiment with NCI-H23 lung were 3.5 µM, 2.36 µM and 2.95 µM, respectively. For the same compound, the TGI with U251 CNS is 7.49 µM; with CCRF-CEM leukemia it was 7.1 µM; in the experiment on SF-268 CNS it was more than 100 µM; with UACC-62 melanoma, 4.64 µM; in the experiment on K-562 leukemia it was more than 100 µM; in the experiment with KM12 colon, 10.3 µM. Also, the figures for the TGI with RXF 393 renal, in the experiment on SF-539 CNS and in the experiment on NCI-H23 lung were 23.3 µM, 7.37 µM and 12.7 µM, respectively.
Take `COc1cc(-c2nc3sc4c(c3c(=O)[nH]2)CCCCCC4)cc(OC)c1OC`: the GI50 in the experiment with CCRF-CEM leukemia is 1.28 µM; in the experiment with SF-268 CNS it was 2.97 µM; with UACC-62 melanoma, 0.743 µM; in the experiment with K-562 leukemia, 0.263 µM; in the experiment on KM12 colon it was 1.21 µM; in the experiment with RXF 393 renal, 0.636 µM. The GI50 is 1.79 µM in the experiment with ACHN renal, 0.673 µM in the experiment with SF-539 CNS and 1.43 µM in the experiment on NCI-H23 lung. The TGI with CCRF-CEM leukemia was more than 33.2 µM; in the experiment on SF-268 CNS, more than 33.2 µM; in the experiment on UACC-62 melanoma it was 30.3 µM; with K-562 leukemia it was more than 33.2 µM; with KM12 colon it was more than 33.2 µM; in the experiment with RXF 393 renal it was 2.55 µM. Further, the TGI in the experiment with ACHN renal was more than 33.2 µM; in the experiment with SF-539 CNS it was 2.08 µM; in the experiment on NCI-H23 lung, more than 33.2 µM.
